Measured values taken from ChEMBL document CHEMBL1201862, “PubChem BioAssay data set” (2004).
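Briefly, cells in 96-well plates were exposed to five compound concentrations for 48 h, and endpoints were estimated by linear interpolation. Here, GI50 denotes the concentration required for 50% inhibition of growth.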 The source made the active and inactive calls. Cut-off read from the data, not from the text of the source: active = GI50 up to about 1.1 µM and inactive = higher.

Columns and labels:
Assay in all cases: growth of human tumour cells (NCI), 48 h
[1] = test system: TK-10
[2] = test system: DU-145
[3] = test system: HCC 2998
[4] = test system: ACHN
[5] = test system: OVCAR-8
[6] = test system: OVCAR-5
[7] = test system: SK-MEL-2
[8] = test system: EKVX
[9] = test system: SF-539
[10] = test system: NCI-H460
[11] = test system: M14
[12] = test system: SR
[13] = test system: A498
[14] = test system: SK-MEL-28
[15] = test system: T47D
[16] = test system: UACC-62
[17] = test system: HL-60
[18] = test system: SNB-19
[19] = test system: OVCAR-3

Measured: GI50

Cc1ccsc1/C(S)=N\c1ccc(Cl)c(/C=N/OC(C)(C)C)c1
inactive: [1] 16.6 µM | [2] 25.5 µM | [3] 18.5 µM | [4] 24.5 µM | [5] 33 µM | [6] > 100 µM | [7] 41.8 µM | [8] 24.6 µM | [9] 50.5 µM | [10] 20.3 µM | [11] 39 µM | [12] 19.9 µM | [13] 20.2 µM | [14] 28.1 µM | [15] 23.6 µM | [16] 32.4 µM | [17] 24.2 µM | [18] > 100 µM | [19] 83.2 µM

Cn1c2ccc(Cl)cc2c2ccc3c(c21)C(=O)C=CC3=O
inactive: [1] > 10 µM | [2] > 10 µM | [3] > 10 µM | [4] > 10 µM | [5] > 10 µM | [6] > 10 µM | [7] > 10 µM | [8] > 10 µM | [9] > 10 µM | [10] > 10 µM | [11] > 10 µM | [12] > 10 µM | [13] > 10 µM | [14] > 10 µM | [15] > 10 µM | [16] > 10 µM | [17] 8.49 µM | [18] > 10 µM | [19] > 10 µM

Nc1ccn(C2OC(C(OC3OC(CO)C(O)C(N)C3O)C(O)C(O)C(O)C(O)CO)C(N)C(O)C2O)c(=O)n1 (stereo not given)
inactive: [1] 85.9 µM | [2] > 100 µM | [3] 5.26 µM | [4] 21.7 µM | [5] 81.5 µM | [6] 15 µM | [7] > 100 µM | [8] > 100 µM | [9] 11.3 µM | [10] 22 µM | [11] 44 µM | [12] 19.9 µM | [13] > 100 µM | [14] > 100 µM | [15] > 100 µM | [16] 71 µM | [17] > 100 µM | [18] 47.3 µM | [19] 22.4 µM

O=C1C=C2CCC[C@H]3OC(=O)C[C@@]23CC1
inactive: [1] > 100 µM | [2] > 100 µM | [3] > 100 µM | [4] > 100 µM | [6] > 100 µM | [7] > 100 µM | [8] > 100 µM | [9] > 100 µM | [10] > 100 µM | [11] > 100 µM | [12] > 100 µM | [13] > 100 µM | [14] > 100 µM | [15] > 100 µM | [16] > 100 µM | [17] > 100 µM | [18] > 100 µM | [19] > 100 µM
